Experimental data from patent US20250195599A1, “ANTI-DIABETIC STEROIDAL LACTONES OF WITHANIA COAGULANS FOR TREATMENT OF TYPE 2 DIABETES” (Khalifa University of Science and Technology, priority 2022, published 2025).

Legend:
MyoD = assay: MyoD1 immunofluorescence staining in D-HSMM; assay type: cell-based, human; settings: for MyoD positive cells: optimum concentration, vs. D-HSMM control (non-treated cells)
Method: The supernatant was removed, cells were washed with warm PBS (37° C.), fixed, and permeabilized with 100 μl phosphate-buffered saline (PBS) containing 4% paraformaldehyde and 0.1% Triton X-100 at room temperature for 10 mins. Next, cells were blocked with 1% BSA (100 μl) in PBS at room temperature for 1 hour. The cells were then incubated with 50 μl of primary anti-MyoD1 antibody (Cat no: ab16148, Abcam, USA), diluted 1:100 in a block solution, overnight at 4° C. Cells were washed in PBS three times, incubated with 50 μl Goat anti-Mouse IgG (H+L) secondary antibody (Cross adsorbed, Alexa Fluor 594, Cat no: R37121, Thermo Fisher Scientific, USA) at room temperature for 30 min. Nuclei were counterstained with 1 μg/ml Hoechst 33342 solution (Cat no: 62249, Thermo Fisher Scientific, USA) in PBS (100 μl/well). For each treatment, cells were examined under EVOS F1 Microscope (Cat no: AMF4300, Life Technologies, USA) and photographed. Approximately 10-12 digital photographs were taken of each treatment for subsequent offline analysis. The total number of immune-positive and immuno-negative cells were counted using Image J (NIH, USA) software. […] Data were presented as a percentage of control (untreated cells).

myogenin = assay: Myogenin immunofluorescence staining in D-HSMM; assay type: cell-based, human; settings: 48 h, optimum concentration, vs. D-HSMM control (untreated cells), FIG. 3A
Method: The supernatant was removed, cells were washed with warm PBS (37° C.), fixed with 100 μl PBS containing 4% paraformaldehyde at room temperature for 10 mins. Cells were permeabilized with 100 μl of 0.25% Triton X-100 on PBS for 10 mins at 25° C. The cells were then blocked with 100 μl of 10% normal goat serum (NGS), incubated with 50 μl of primary anti-myogenin antibody (Cat no: MAB3876, Merck Millipore, USA) diluted 1:500 in block solution overnight at 4° C. Cells were washed in PBS (200 μl) three times, incubated with 50 μl Goat anti-Mouse IgG (H+L) secondary antibody (Cross adsorbed, Alexa Fluor 594, Cat no: R37121, Thermo Fisher Scientific, USA) at room temperature for 30 min. Nuclei were counterstained with 1 μg/ml Hoechst 33342 solution (Cat no: 62249, Thermo Fisher Scientific, USA) in PBS (100 μl/well). For each treatment, cells were examined under EVOS F1 Microscope (Cat no: AMF4300, Life Technologies, USA) and photographed. Approximately 10-12 digital photographs were taken of each treatment for subsequent offline analysis. The total number of immune-positive and immuno-negative cells were counted using Image J (NIH, USA) software. […] Data were presented as a percentage of control (untreated cells).

[1] = tested on: Diseased Human Skeletal Muscle Myoblasts (D-HSMM) diabetes type II; assay: LDH release cytotoxicity assay; settings: D-HSMM myoblasts treated 48 h; W. Coagulans and Coagulansin-A 1×10^−15 g/ml; vs. control (non-treated cells); FIG. 2A
Method: Cell line: The Clonetics® Diseased Human Skeletal Muscle Myoblasts (D-HSMM) diabetes type II, (Cat no: CC-2901) sourced from a donor, were purchased from Lonza (Lonza Bioscience, USA).
Cells were cultured in the growth medium, Skeletal Muscle Growth Media-2 (SkGM-2; CC-3244) containing basal medium, Human epidermal growth factor (hEGF), Dexamethasone, L-glutamine, Fetal Bovine Serum (FBS), and Gentamicin/Amphotericin B (GA-1000). Cells were seeded at 6250 cells/cm^2 in T175 flasks and maintained at 37° C. in a humidified incubator (Thermo Scientific, USA) containing 5% carbon dioxide (CO2). After 24 hours, when cells adhered to the bottom of the flask, media was changed every 24-48 hours. […]
The cytotoxicity detection kit (Cat no: 11644793001, Roche, USA) was used to measure lactate dehydrogenase (LDH) release according to the manufacturer's instructions. Briefly, released LDH in culture supernatants was measured with a 30-mins coupled enzymatic assay that results in the reduction of tetrazolium salt, Iodotetrazolium chloride (INT) into a formazan (red). […] Absorbance at 490 nm was measured with an Emax Plus microplate reader (CA 94089, Molecular devices, USA). The reader was calibrated to zero absorbance using a culture medium without cells. The untreated cells served as the control, and results were calculated as the percentage of viability in relation to the control. […]

MAFbx/atrogin-1 = assay: Atrogin-1/Fbx32 immunofluorescence staining in D-HSMM; assay type: cell-based, human; settings: 48 h, optimum concentration, vs. control (non-treated cells), FIG. 4A
Method: The supernatant was removed, cells were washed with warm PBS (37° C.), fixed with phosphate-buffered saline (PBS) containing 4% paraformaldehyde at room temperature for 10 mins. Cells were permeabilized with 0.25% Triton X-100 on PBS for 10 mins at 25° C. The cells were then blocked with 100 μl of 10% NGS in PBS at room temperature for 2 hours. The cells were then incubated with 50 μl primary Anti-Fbx32 antibody (Cat no: NBP2-76836, Novus Biological, USA) diluted 1:100 in block solution overnight at 4° C. Cells were washed in PBS three times (200 μl), incubated with 50 μl Goat anti-Rabbit IgG (H+L) (Cross adsorbed, Alexa Fluor 488, Cat no: R37116, Thermo Fisher Scientific, USA) secondary antibody at room temperature for 30 min. Nuclei were counterstained with 1 μg/ml Hoechst 33342 solution (Cat no: 62249, Thermo Fisher Scientific, USA) in PBS (100 μl/well). For each treatment, cells were examined under EVOS F1 Microscope (Cat no: AMF4300, Life Technologies, USA) and photographed. Approximately 10-12 digital photographs were taken of each treatment for subsequent offline analysis. The total number of immune-positive and immuno-negative cells were counted using Image J (NIH, USA) software. […] Data were presented as a percentage of control (untreated cells).

GLUT4 = assay: Total GLUT4 immunofluorescence in D-HSMM myotubes; assay type: cell-based, human; settings: FIG. 6B; for expression of GLUT-4: treated 24 h on day 8, 100 nM insulin challenge, vs. D-HSMM control (untreated cell)
Method: Measurement of Total GLUT4: Approximately 2×10^3 cells were seeded in a 96 well clear bottom black poly D lysine (5 μg/cm^2) coated plate and allow to grow with a media change after every 48 h. […] The supernatant was removed and challenged for 5 mins with 100 nM insulin. Next, cells were washed with warm PBS (37° C.), fixed with phosphate-buffered saline (PBS) containing 4% paraformaldehyde at room temperature for 10 mins. Cells were permeabilized with 0.5% Triton X-100 on PBS for 10 mins at 25° C. The cells were then blocked with 100 μl of 10% NGS in PBS at room temperature for 2 hours. The cells were then incubated with 50 μl GLUT4 antibody (Cat no: NBP1-49533, Novus Biological, USA) diluted 1:100 in block solution overnight at 4° C. Cells were washed in PBS three times (200 μl), incubated with 50 μl Goat anti-Rabbit IgG (H+L) (Cross adsorbed, Alexa Fluor 488, Cat no: R37116, Thermo Fisher Scientific, USA) secondary antibody at room temperature for 30 min. Total fluorescence was measured m at […] (excitation/emission) by Tecan multimode plate reader (M200, Tecan, Switzerland). Cells without primary antibody were used for blank reduction. The relative GLUT 4 (%) related to control wells containing cells with DMEM:F12 medium was calculated by (RFU) test/(RFU) control×100. Where (RFU) test is the fluorescence of the test sample and (RFU) control is the fluorescence of the control sample.

GLUT1 = assay: Cell-based GLUT1 ELISA in D-HSMM myotubes; set-up: species or system human; settings: treated 24 h on day 8, FIG. 6A
Method: After 24 hours, GLUT1 was measured by using CytoGlow™ cell-based GLUT 1 ELISA kit (Cat no: MBS95002558, MyBioSource, USA), according to the manufacturer's protocol. Briefly, cells were fixed with phosphate-buffered saline (PBS) containing 4% paraformaldehyde at room temperature for 20 mins. Next, cells were quenched for 20 mins at room temperature. Cells were washed in PBS three times, blocked at room temperature for 1 hour. Cells were washed in PBS three times, incubated with primary GLUTI antibody overnight at 4° C. Cells were washed in PBS three times (200 μl), incubated with HRP-conjugated secondary antibody at room temperature for 1.5 hours. Cells were washed in PBS three times and incubated with a ready-to-use substrate for 30 minutes at room temperature in the dark with gentle shaking on the shaker. The reaction was stopped, and OD was measured at 450 nm immediately using an Emax Plus microplate reader (Molecular devices, CA 94089, USA).

urease = settings: stated as background knowledge; cited from earlier work
bovine embryo = settings: stated as background knowledge; cited from earlier work
D-HSMM myotubes = assay: Insulin-stimulated 2-NBDG glucose uptake in D-HSMM myotubes; assay type: cell-based, human; settings: FIG. 7
Method: Insulin-stimulated 2-NBDG uptake: The ability of the test compounds on insulin-stimulated glucose uptake was measured using the Glucose Uptake Cell-Based Assay Kit (Cat no: 600470, Cayman, Michigan, USA) according to the manufacturer's instructions. Briefly, the cells were seeded at a density of 2×10^3 cells/well in a 96 well black, clear-bottom poly D lysine coated plate and allowed to grow with a media change after every 48 hours. […] Subsequently, cells were washed with 300 μl PBS three times and incubated with PBS for 5 mins at 37° C., in a CO2 incubator. Cells were challenged for 20 min with 50 μl of 100 nM insulin and 50 μl of 100 μg/ml fluorescent glucose analog 2-deoxy-2-[(7-nitro-2,1,3-benzoxadiazol-4-yl) amino]-D-glucose (2-NBDG) in Krebs/Ringer buffer (KRB) (118.5 mM NaCl, 25 mM NaHCO3, 4.74 mM KCl, 1.19 mM MgSO4, 2.54 mM CaCl2, 10 mM HEPES, 1.19 mM KH2PO4, 0.1% BSA) (pH 7.4). At the end of the incubation, the plates were centrifuged for 3 mins at 400×g at room temperature, and the supernatant was aspirated. Cells were washed with 200 μl/well cell-based assay buffer and centrifuged for 3 mins at 400×g at room temperature. […] The fluorescence reading of each well was immediately measured (excitation/emission=485 nm/535 nm) by using a Tecan multimode plate reader (Cat no: M200, Tecan, Switzerland). […]

[2] = tested on: Diseased Human Skeletal Muscle Myoblasts (D-HSMM) diabetes type II; assay type: cell-based
Method: Measurement of cellular viability: Cell proliferation was measured by using MTT 3-(4,5-dimethylthiazol-2-yl)-2,5-diphenyltetrazolium bromide (MTT) (Cat no: M2128, Sigma Aldrich, USA). […] After 48 h of incubation, plates were removed from the CO2incubator and washed with 200 μl PBS. Thereafter, 100 μl of MTT solution (0.5 mg/ml in SkGM-2 medium) was added to each well. The contents were placed on a shaker for 5 min and were incubated for 4 hours in a CO2 incubator to allow the MTT to be metabolized. After incubation, the supernatant was removed, and the plate was washed with 300 μl PBS. The plates were inverted and strongly tapped on a paper towel to remove the medium completely. […] For the blank control, wells were set without cells but received all the reagents.

| Molecule | MyoD positive cells (MyoD; D-HSMM, 48 h, FIG. 5A) | expression of myogenin (myogenin) | LDH release [1] | expression of atrogin1 (MAFbx/atrogin-1) | expression of GLUT-4 (GLUT4) | expression of GLUT1 (GLUT1) | MyoD positive cells compared to metformin and pioglitazone (MyoD; D-HSMM myoblasts, 48 h, vs. metformin and pioglitazone treated cells, FIG. 5A) | MyoD positive cells, dose optimization (MyoD; D-HSMM, concentration 10^−15 g/ml (of 10^−13, 10^−15, 10^−17 g/ml tested), vs. diabetic control, FIG. 9) | antiurease activity (urease) | expression of GLUT-4 compared to metformin (GLUT4; vs. metformin (as printed in text)) | effects on development of bovine embryo (bovine embryo) | insulin-stimulated glucose uptake (2-NBDG) (D-HSMM myotubes; treated 24 h, vs. control (untreated cells)) | insulin-stimulated glucose uptake compared to positive controls (D-HSMM myotubes; vs. insulin, metformin, and pioglitazone) | MTT metabolic rate, dose optimization [2] | MTT viability [2] |
| --- | --- | --- | --- | --- | --- | --- | --- | --- | --- | --- | --- | --- | --- | --- | --- |
| Insulin | enhanced expression | significantly increased expression | significant decrease | significantly suppressed expression | upregulated | – | – | – | – | – | – | – | – | – | – |
| CC1=C(CO)C(=O)O[C@@H]([C@](C)(O)[C@]2(O)CC[C@@]3(O)C4CC=C5CC=CC(=O)[C@]5(C)C4CC[C@]23C)C1 (stereo partly drawn) [Coagulansin-A, (14α, 17S,20S,22R)-14, 17,20,27-tetrahydroxy-1-oxowitha-2,5,24-trienolide)] | enhanced expression | significantly increased expression | – | significantly suppressed expression | upregulated | remained unaffected | Significantly increased MyoD positive cells | enhanced expression | antiurease activity | significant increase | beneficial effects on development of bovine embryo | significantly enhanced glucose uptake | increased glucose uptake | did not affect the metabolic rate | did not affect the viability |
| COc1ccc(Cl)cc1C(=O)NCCc1ccc(S(=O)(=O)NC(=O)NC2CCCCC2)cc1 [Glibenclamide, reference compound] | enhanced expression | – | – | – | – | – | – | – | – | – | – | – | – | – | – |
| CN(C)C(=N)N=C(N)N [Metformin] | did not show any difference | remained unaffected | – | significantly suppressed expression | – | – | – | – | – | – | – | – | – | – | – |
